Measured values reported in patent US20260235610A1, “METHOD OF PREDICTING SUCCESS OF A CANCER THERAPY” (IMMUSMOL SAS, priority 2023, published 2026).

Assays:
TPH1 = biological target: T1, TPH1 (Homo sapiens, UniProt P17752); experiment: Tryptophan metabolites (Trp, 5HTP, 5HT and ratios) in QGP1-conditioned media as surrogate of TPH1 activity; assay type: cell-based; conditions: QGP1 cells cultured 48 hours; for effect on C-Media decrease in Trp level and concomitant increase of 5HTP, 5HT, 5HTP/Trp and 5HT/Trp ratios: Telotristat 1 μM, PEA 300 μM, versus C-Media alone
T1 construct: QGP1 neuroendocrine tumor cell line characterized by a high TPH1 expression and activity; endogenous in cells; host or cells: QGP-1 neuroendocrine tumor cell line
T1 sequence (P17752 1-444): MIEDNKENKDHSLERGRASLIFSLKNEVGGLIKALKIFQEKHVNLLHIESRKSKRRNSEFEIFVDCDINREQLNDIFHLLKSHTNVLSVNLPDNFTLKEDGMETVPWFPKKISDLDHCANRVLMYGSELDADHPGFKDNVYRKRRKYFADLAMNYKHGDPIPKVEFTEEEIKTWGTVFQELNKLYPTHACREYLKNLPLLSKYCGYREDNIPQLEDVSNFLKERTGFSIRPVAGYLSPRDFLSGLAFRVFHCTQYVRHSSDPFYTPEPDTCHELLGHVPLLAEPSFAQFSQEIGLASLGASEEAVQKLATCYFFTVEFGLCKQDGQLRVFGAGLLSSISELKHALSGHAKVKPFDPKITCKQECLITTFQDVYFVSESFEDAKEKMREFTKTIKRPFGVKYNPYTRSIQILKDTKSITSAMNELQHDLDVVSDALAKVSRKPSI
Experimental: The impact of TPH1^High conditioned culture media (C-Media) on immune cell activation was evaluated. QGP1 neuroendocrine tumor cell line characterized by a high TPH1 expression and activity was cultured over a 48-hour period in the presence and absence of Telotristat (TPH1 inhibitor) or Phenethylamine (PEA) alone and in the presence of Telotristat.
The media characteristics were as follows: • i) NC-Media • ii) C-Media • iii) C-Media+Telotristat (TPH1 inhibitor) • iv) C-Media+Phenethylamine (PEA) • v) C-Media+Telotristat (TPH1 inhibitor)+Phenethylamine (PEA)
(§1) The QGP-1 cell line was cultured in RPMI-1640 medium, supplemented with 10% (v/v) FCS and penicillin-streptomycin in a humidified incubator at 5% CO2 and 37° C. In order to prepare the conditioned media, cells were cultured in 6-well plates for 48 hours in the presence and absence of Telotristat (1 μM), a TPH1 inhibitor, and in the presence and absence of Phenethylamine (PEA; 300 μM), a TPH1 inducer (Zhai et al., 2023). QGP1-conditioned media (C-Media) were used to culture human PBMCs (Peripheral Blood Mononuclear Cells) originating from one healthy donor for a 72-hour period under anti-CD3 activation (0.5 μg/mL). As control, fresh cell culture media (Non-Conditioned Media (NC-Media) was used.
Each analytes-Tryptophan (Trp), 5-hydroxyTryptopan (5HTP) and Serotonin (5HT)-were measured individually and then used to calculate ratio, i.e. 5HTP/Trp and 5HT/Trp as representative surrogate of TPH1 activity.
Tryptophan was quantified using an immunoassay (#BA-E-2700, ImmuSmol, Bordeaux, FRANCE). Briefly, in order to remove proteins, 20 μL of sample were precipitated, vortexed and then centrifuged for 15 minutes (3,000 g, at 4° C.). Twenty five microliters of supernatant were then used for derivatization for a 2 hour period at room temperature. Once the derivatization was achieved, 25 μL of the solution was applied on a 96-microtiters prior addition of 50 μL of anti-Tryptophan antiserum. […]
5-HdroxyTryptophan was quantified using an immunoassay. […]
Serotonin was quantified using an immunoassay (#BA-E-5900R, ImmuSmol, Bordeaux, FRANCE). […]

human PBMCs = experiment: anti-CD3 mediated PBMCs activation in QGP1-conditioned media, IFN-γ measurement by HTRF; assay type: cell-based; conditions: anti-CD3 0.5 μg/mL; for effect on C-Media induced decrease in anti-CD3 mediated PBMCs activation (IFN-γ): PBMCs of one healthy donor, 72 hours, conditioned media prepared with Telotristat 1 μM or PEA 300 μM
Experimental: Culture supernatant was then collected and applied on peripheral blood mononuclear cells (PBMCs) cultivated under anti-CD3-based activation for 3-days.
as §1
At the end of PBMCs treatment period as described above, cell culture supernatants were collected and subjected to IFN-γ measurement by mean of HTRF (Homogeneous Time Resolved Technology, Perkin Elmer) which serves as a surrogate of immune cell activation (FIG. 12). HTRF is a standard technique well-known in the art and therefore perfectly within the routine of the skilled person.

| SMILES | effect on PEA-induced TPH1 activity (TPH1; Telotristat 1 μM plus PEA 300 μM) | effect on C-Media decrease in Trp level and concomitant increase of 5HTP, 5HT, 5HTP/Trp and 5HT/Trp ratios (TPH1) | effect on the more limited immune cell activation associated with PEA-induced TPH1 activation (IFN-γ) (human PBMCs; PBMCs 72 hours, conditioned media prepared with Telotristat 1 μM plus PEA 300 μM) | effect on C-Media induced decrease in anti-CD3 mediated PBMCs activation (IFN-γ) (human PBMCs) |
| --- | --- | --- | --- | --- |
| Cc1ccn(-c2cc(Cl)ccc2[C@@H](Oc2cc(-c3ccc(C[C@H](N)C(=O)O)cc3)nc(N)n2)C(F)(F)F)n1 [Telotristat] | able to limit PEA-induced TPH1 activity | largely limited | alleviated | limited |
| NCCc1ccccc1 [PEA, Phenethylamine] |  | further increased |  | increased |
